Measurements: EP4748841A1, “BICYCLO[5,6] IMIDAZOLE PYRIMIDONE DERIVATIVE AND PREPARATION METHOD THEREFOR AND USE THEREOF” (Shujing Biopharma Co., Ltd, priority 2023, dated 2025)

How the values were obtained:
Assay type in all cases: in vitro ADME
[1] = Liver microsome stability experiment (beagle dog); details: for CLint scaled at 1 µM: beagle, dog, liver microsomes, pH 7.4, Beagle dog liver microsomes
Procedure: (§1) This experiment aimed to evaluate the phase I metabolic stability of the compounds of the present disclosure in liver microsomes of SD rats, beagle dogs, cynomolgus monkeys, and humans.
(§2) • (1) Buffer preparation: 73.21 g of dipotassium hydrogen phosphate trihydrate and 10.78 g of potassium dihydrogen phosphate were dissolved in 4000 mL of ultrapure water. The pH of the solution was adjusted to within 7.40 ± 0.10 using 10% phosphoric acid or 1 M potassium hydroxide, resulting in a final concentration of 100 mM. • (2) Solution preparation and dilution: Stock solutions of the test compounds at a concentration of 10 mM were prepared in dimethyl sulfoxide (DMSO) and stored at 4 °C, and they were diluted into 100 µM working solutions with pure acetonitrile when used. A stock solution of the control compound testosterone at a concentration of 10 mM was prepared in DMSO and stored at -20 °C, and it was diluted into a 400 µM working solution with pure acetonitrile when used. • (3) Termination solution preparation: The termination solution was an acetonitrile solution containing an internal standard (terfenadine). The prepared termination solution was stored in a refrigerator at 2-8 °C. • (4) Liver microsome solution preparation: Liver microsomes from various species (SD rat, beagle dog, cynomolgus monkey, and human) were diluted into 20× working solutions using 100 mM potassium phosphate buffer. The final concentration of the liver microsomes in the reaction system was 0.5 mg/mL. • (5) Reduced nicotinamide adenine dinucleotide phosphate (NADPH) regeneration system preparation: Appropriate amounts of nicotinamide adenine dinucleotide phosphate (NADP), glucose-6-phosphate (G6P), magnesium chloride (MgCl2), and glucose-6-phosphate dehydrogenase (G6PDH) were weighed to prepare stock solutions at concentrations of 65.33 mM, 330 mM, 300 mM, and 250 Units/mL, respectively. The four stock solutions described above were each added to an appropriate amount of buffer, and the mixture was mixed well by gently inverting up and down. The final concentrations of NADP, G6P, MgCl2, and G6PDH in the NADPH regeneration system were 2.65 mM, 10.2 mM, 6.12 mM, and 2.45 Units/mL, respectively. • (6) Incubation process: The incubation was completed in 96-well plates. Several incubation plates were prepared and named T0, T5, T10, T20, T40, T60, and NCF60, respectively. The first 6 plates corresponded to reaction time points of 0 min, 5 min, 10 min, 20 min, 40 min, and 60 min, respectively. The NCF60 plate was incubated for 60 min with potassium phosphate buffer replacing the NADPH regeneration system solution. Samples under all conditions were prepared in triplicate.
(§3) 2 µL of the test compound or control compound and 100 µL of microsome working solution (containing 1 mg/mL liver microsome protein) were added to each of the T0, T5, T10, T20, T40, T60, and NCF60 plates, and only the microsome working solution was added to the Blank 60 plate. The plates described above were then pre-incubated in a 37 °C water bath for about 10 min.
(§4) After the pre-incubation was completed, 98 µL of the NADPH regeneration system working solution was added to each sample well except for the NCF60 plate and the T0 plate to initiate the reaction, and 98 µL of potassium phosphate buffer was added to each well of the NCF60 plate. Therefore, for the sample wells containing the test sample or control substance working solution, the final concentrations of TC and testosterone in the reaction were 1 µM and 4 µM, respectively, the concentration of liver microsomes was 0.5 mg/mL, and the final concentrations of DMSO and acetonitrile in the reaction system were 0.01% (v/v) and 0.99% (v/v), respectively.
(§5) After incubation for an appropriate time (e.g., 5 min, 10 min, 20 min, 40 min, and 60 min), 600 µL of a termination solution (an acetonitrile solution containing 100 ng/mL […]) was added to each test compound sample well and control compound sample well to terminate the reaction. […]

[2] = Liver microsome stability experiment (SD rat); details: for CLint scaled at 1 µM: SD, rat, liver microsomes, pH 7.4, SD rat liver microsomes
Procedure: as §1, §2, §3, §4, §5

[3] = Liver microsome stability experiment (cynomolgus monkey); details: pH 7.4, Cynomolgus monkey liver microsomes, 0.5 mg/mL; for CLint scaled at 1 µM: cynomolgus monkey, liver microsomes
Procedure: as §1, §2, §3, §4, §5

[4] = Liver microsome stability experiment (human); details: for CLint scaled at 1 µM: human, liver microsomes, pH 7.4, Human liver microsomes
Procedure: as §1, §2, §3, §4, §5

[5] = 0.5 mg/mL, 1 µM, read-out: CL(liver)
[6] = 0.5 mg/mL, 1 µM, read-out: CLint(liver)
[7] = read-out: Clearance rate classification

CLint scaled at 1 µM [1, 5]: 8.8 mL/min/kg | CLint scaled at 1 µM [1, 6]: 12.4 mL/min/kg | CLint scaled at 1 µM [1, 7]: ≤ 13.2 mL/min/kg | half-life at 1 µM ([1]; pH 7.4, Beagle dog liver microsomes, 0.5 mg/mL, 1 µM): 162 min | CLint scaled at 1 µM [2, 5]: < 10.8 mL/min/kg | CLint scaled at 1 µM [2, 6]: < 13.4 mL/min/kg | CLint scaled at 1 µM [2, 7]: ≤ 23.7 mL/min/kg | half-life at 1 µM ([2]; pH 7.4, SD rat liver microsomes, 0.5 mg/mL, 1 µM): > 186 min | CLint scaled at 1 µM ([3]; read-out: CL(liver)): 39.8 mL/min/kg | CLint scaled at 1 µM ([3]; read-out: CLint(liver)): 461 mL/min/kg | half-life at 1 µM [3]: 4.06 min | CLint scaled at 1 µM [4, 5]: 15.4 mL/min/kg | CLint scaled at 1 µM [4, 6]: 60.3 mL/min/kg | CLint scaled at 1 µM [4, 7]: > 48.3 mL/min/kg | half-life at 1 µM ([4]; pH 7.4, Human liver microsomes, 0.5 mg/mL, 1 µM): 20.7 min
Structure (SMILES): COCCN1CCC(N(Cc2ccc(-c3ccc(C(F)(F)F)cc3)cc2)C(=O)Cn2c(SCc3cccc(F)c3F)cc(=O)c3ccccc32)CC1 [Rilapladib]
